Measured values published in article PMC8073005, “Antifungal Activity and DNA Topoisomerase Inhibition of Hydrolysable Tannins from Punica granatum L” (International Journal of Molecular Sciences, 2021).
In brackets after ≈: the same amount, converted by molar mass.

Assays:
Format in all cases: cell-based
Candida albicans 44 = assay: MIC, broth microdilution (human pathogens); conditions: Candida albicans 44; SDB, 30 °C, 48 h; read-out: Minimum inhibitory concentration (MIC)
[1] = system: Cryptococcus neoformans ATCC 11240; assay: MIC, broth microdilution (human pathogens); conditions: ATCC11240; Cryptococcus neoformans ATCC 11240; SDB, 30 °C, 48 h; read-out: Minimum inhibitory concentration (MIC)
[2] = system: Candida albicans ATCC 10321; assay: MIC, broth microdilution (human pathogens); conditions: ATCC10321; Candida albicans ATCC 10321; SDB, 30 °C, 48 h; read-out: Minimum inhibitory concentration (MIC)
[3] = system: Saccharomyces cerevisiae 42; assay: MIC, broth microdilution (human pathogens); conditions: Saccharomyces cerevisiae 42; SDB, 30 °C, 48 h; read-out: Minimum inhibitory concentration (MIC)
Cryptococcus 67 = assay: MIC, broth microdilution (human pathogens); conditions: Cryptococcus 67; SDB, 30 °C, 48 h; read-out: Minimum inhibitory concentration (MIC)
Candida parapsilosis = assay: MIC, broth microdilution (human pathogens); conditions: Lodderomyces parapsilosis; Candida parapsilosis; SDB, 30 °C, 48 h; read-out: Minimum inhibitory concentration (MIC)
Aspergillus candidus 3 = assay: MIC, broth microdilution (human pathogens); conditions: Aspergillus candidus 3; SDB, 30 °C, 48 h; read-out: Minimum inhibitory concentration (MIC)
Candida albicans SC 5314 = assay: Time-kill curves; conditions: C. albicans SC 5314; compound at its MIC value; 0–96 h
Candida albicans 41 = assay: MIC, broth microdilution (human pathogens); conditions: Candida albicans 41; SDB, 30 °C, 48 h; read-out: Minimum inhibitory concentration (MIC)
Candida albicans 2 = assay: MIC, broth microdilution (human pathogens); conditions: Candida albicans 2; SDB, 30 °C, 48 h; read-out: Minimum inhibitory concentration (MIC)

Compound	MIC (Candida albicans 44) [µM]	MIC [1] [µM]	MIC [2] [µM]	MIC [3] [µM]	MIC (Cryptococcus 67) [µM]	MIC (Candida parapsilosis) [µM]	MIC (Aspergillus candidus 3) [µM]	time-kill curve (susceptibility time-course) (Candida albicans SC 5314)	MIC (Candida albicans 41) [µM]	MIC (Candida albicans 2) [µM]
O=c1oc2c(O)c(O)cc3c(=O)oc4c(O)c(O)cc1c4c23 [Ellagic Acid, ellagic acid]	2.5 (≈ 0.755 µg/mL)	331 (≈ 100 µg/mL)	2.5 (≈ 0.755 µg/mL)	662 (≈ 200 µg/mL)	662 (≈ 200 µg/mL)	662 (≈ 200 µg/mL)	662 (≈ 200 µg/mL)	better antifungal activity against the reference C. albicans strain after 72 h of exposure	331 (≈ 100 µg/mL)	2.5 (≈ 0.755 µg/mL)
O=C1OC[C@H]2OC(O)[C@H](O)[C@@H](O)[C@@H]2OC(=O)c2cc(O)c(O)c(O)c2-c2c(O)c(O)c3oc(=O)c4c(c(O)c(O)c5oc(=O)c2c3c54)-c2c1cc(O)c(O)c2O (mixture of isomers) [Punicalin, punicalin]	127	1.9	127	3.8	127	127	127	–	127	3.8
